In US20110086836A1, “Substituted Phenylpiperidine Derivatives As Melanocortin-4 Receptor Modulators” (Santhera Pharmaceuticals (Schweiz) AG, priority 2006, published 2011):
Values belong to the molecule of their own block, whether it stands above or below them.

How the values were obtained:
[1] = biological target: T1, human melanocortin-4 receptor (hMC-4R) (Homo sapiens, UniProt P32245); test: hMC-4R functional assay (membrane based cAMP fluorescence polarization); format: biochemical; parameters: concentration or dose not given beside the values; conditions: cAMP produced compared to stimulation with NDP-alpha-MSH
T1 construct: expressed in transfected cells; host or cells: HEK293 (membrane preparations)
T1 sequence (P32245 whole entry): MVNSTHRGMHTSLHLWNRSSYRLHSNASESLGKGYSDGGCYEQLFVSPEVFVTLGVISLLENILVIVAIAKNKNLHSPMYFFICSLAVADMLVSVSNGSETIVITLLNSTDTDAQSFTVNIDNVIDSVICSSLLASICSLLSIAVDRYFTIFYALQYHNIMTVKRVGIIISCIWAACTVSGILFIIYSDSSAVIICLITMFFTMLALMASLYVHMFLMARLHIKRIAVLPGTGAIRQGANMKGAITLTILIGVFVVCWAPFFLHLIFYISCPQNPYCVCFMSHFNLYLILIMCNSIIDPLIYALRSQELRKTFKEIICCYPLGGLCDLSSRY
Protocol: Agonistic activity of human melanocortin receptors is determined in a homogeneous membrane based assay.
Membrane preparations from HEK293 cells expressing the human melanocortin receptors are added. After a short preincubation period, an appropriate amount of ATP, GTP and the cAMP antibody is added and the plate is further incubated before the fluorescence labeled cAMP conjugate is dispensed. The plate is incubated for 2 h at 4° C. before it is read on a fluorescence polarization microplate reader.

[2] = biological target: T1, human melanocortin-4 receptor (hMC-4R); test: hMC-4R binding assay (fluorescence polarization, competition with fluorescence labeled NDP-alpha-MSH); conditions: HEK293 cell membrane preparations expressing human melanocortin receptors
Protocol: The plate is incubated for 5 h at room temperature.
The degree of fluorescence polarization is determined with a fluorescence polarization microplate reader.

SMILES: O=C(N[C@H](Cc1ccc(Cl)cc1Cl)C(=O)N1CCC(c2ccccc2CCN2CCC(F)CC2)CC1)N1CCCC1 [Example 36]
% activation functional assay [1]: 0%
IC50 [2]: 9.6 nM

SMILES: O=C(N[C@H](Cc1ccc(Cl)cc1Cl)C(=O)N1CCC(c2ccccc2OCCN2CCCC2)CC1)N1CCC(F)(F)C1 [Example 110]
% activation functional assay [1]: 0%
IC50 [2]: 4.4 nM

SMILES: O=C(N[C@H](Cc1ccc(Cl)cc1Cl)C(=O)N1CCC(c2ccccc2CCCN2CCCC2)CC1)N1CCOCC1 [Example 95]
% activation functional assay [1]: 0%
IC50 [2]: 5.3 nM

Molecules with a lower IC50 [2], results first:

% activation functional assay [1]: 0%
IC50 [2]: 3 nM
SMILES: CN(C)[C@H]1CCN(C(=O)N[C@H](Cc2ccc(Cl)cc2Cl)C(=O)N2CCC(c3ccccc3OCCN3CCCC3)CC2)C1 [Example 113]

% activation functional assay [1]: 0%
IC50 [2]: 3.7 nM
SMILES: O=C(N[C@H](Cc1ccc(Cl)cc1Cl)C(=O)N1CCC(c2ccccc2OCCN2CCCC2)CC1)N1CCCC1 [Example 2]
